{"source": "paper PMC4171664", "about": "(Diabetes, 2014)", "biological_target": "T1, I-A^g7 (Mus musculus, UniProt P04228+Q31135)", "T1 sequence (P04228 24-256)": "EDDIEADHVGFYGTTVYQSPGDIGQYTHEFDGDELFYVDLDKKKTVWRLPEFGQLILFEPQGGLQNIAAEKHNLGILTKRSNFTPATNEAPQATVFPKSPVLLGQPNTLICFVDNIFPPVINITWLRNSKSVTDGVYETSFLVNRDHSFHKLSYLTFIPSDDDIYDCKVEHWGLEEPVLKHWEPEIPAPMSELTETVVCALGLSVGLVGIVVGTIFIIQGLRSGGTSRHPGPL", "T1 sequence (Q31135 1-263)": "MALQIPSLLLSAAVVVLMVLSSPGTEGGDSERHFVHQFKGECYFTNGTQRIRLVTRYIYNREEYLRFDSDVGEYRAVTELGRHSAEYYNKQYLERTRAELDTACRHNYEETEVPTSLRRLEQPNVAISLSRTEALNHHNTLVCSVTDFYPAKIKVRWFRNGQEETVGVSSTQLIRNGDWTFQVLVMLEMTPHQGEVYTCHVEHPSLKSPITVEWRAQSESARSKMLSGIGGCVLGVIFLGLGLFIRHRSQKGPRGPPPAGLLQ", "format": "binding, NOD mouse", "note": "pIC50: −log10 of the molar value. No end group written: not given here."}
{"sequence": "AVDGVISVHSLHIW [292–305]", "values": [{"measurement": "pIC50", "value": 5.29}]}
{"sequence": "GYNHKDVQANASVR [201–214]", "values": [{"measurement": "pIC50", "value": 4.05}]}
{"sequence": "RTGIAQALSSFDLHS [330–344]", "values": [{"measurement": "pIC50", "value": 5.24}]}
{"sequence": "GHVAGSLAILTDAA [91–104]", "values": [{"measurement": "pIC50", "value": 6.22}]}
{"sequence": "SVRAAFVHALGDVF [212–225]", "values": [{"measurement": "pIC50", "value": 6.22}]}
{"sequence": "LTIQIESAADQDPSC [345–359]", "values": [{"measurement": "pIC50", "value": 5.96}]}
